From patent publication US20250171463A1 (BIOGEN MA INC., priority 2022, published 2025)

Target: T1, EBP (Homo sapiens, UniProt Q15125)
T1 construct: HEK293T cells were utilized as the source of EBP enzyme; endogenous in cells; host or cells: HEK293T
Experiment: EBP Functional Assay (EBP immunoaffinity LC-MS assay)
Type: biochemical
Conditions: EBP enzyme from HEK293T cells; 30 min with inhibitor, then zymosterol-d5, 37° C., 4 h; percent conversion to dehydrolathosterol-d5 by LC-APCI MRM MS
How it was run: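 HEK293T cells served as EBP source; enzyme preincubated 30 min with inhibitor dilutions, then zymosterol-d5 substrate added and incubated 4 h at 37° C. Sterols extracted and quantified by LC-APCI MRM MS; percent conversion to […] fit to 4-parameter logistic for IC50. Tasin-1 reference inhibitor.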

T1 sequence (Q15125 whole entry): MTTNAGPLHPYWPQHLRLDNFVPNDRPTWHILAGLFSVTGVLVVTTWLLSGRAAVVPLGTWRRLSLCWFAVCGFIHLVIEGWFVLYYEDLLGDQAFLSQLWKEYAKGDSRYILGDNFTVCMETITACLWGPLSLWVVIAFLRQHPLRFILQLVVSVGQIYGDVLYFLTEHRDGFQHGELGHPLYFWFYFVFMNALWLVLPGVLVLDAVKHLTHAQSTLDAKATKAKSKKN

Row | Compound | IC50
1 | O=S(=O)(c1ccc(OC(F)(F)F)cc1F)N1CC2(CN(CC3CCOCC3)C2)C1 [Example 220, 2-((2-fluoro-4-(trifluoromethoxy)phenyl)sulfonyl)-6-((tetrahydro-2H-pyran-4-yl)methyl)-2,6-diazaspiro[3.3]heptane] | 250 to 4000 nM
2 | Cc1ccc(S(=O)(=O)N2CC3(CCN(C4CCOCC4)C3)C2)c(C)c1 [Example 52, 2-((2,4-Dimethylphenyl)sulfonyl)-6-(tetrahydro-2H-pyran-4-yl)-2,6-diazaspiro[3.4]octane] | < 100 nM
3 | O=S(=O)(c1ccc(OC(F)F)cc1)N1CCO[C@@]2(CCN(C3CC4(COC4)C3)C2)C1 (single isomer, unassigned) [Example 26] | 100 to 250 nM
4 | COC(=O)C(C)(C)CCN1CC2(C1)CN(S(=O)(=O)c1ccc(C(F)(F)F)nc1C)C2 [Example 177] | 250 to 4000 nM
5 | Cc1nc(C(F)(F)F)ccc1S(=O)(=O)N1CC2(CN(C(C)C3CCOCC3)C2)C1 (single isomer, unassigned) [Example 156] | < 100 nM
6 | Cc1cc(C(F)(F)F)cnc1S(=O)(=O)N1CC2(CN(C3CCOCC3)C2)C1 [Example 221, 2-((3-methyl-5-(trifluoromethyl)pyridin-2-yl)sulfonyl)-6-(tetrahydro-2H-pyran-4-yl)-2,6-diazaspiro[3.3]heptane] | 250 to 4000 nM
7 | 4-((6-((2-methyl-6-(trifluoromethyl)pyridin-3-yl)sulfonyl)-2,6-diazaspiro[3.3]heptan-2-yl)methyl)tetrahydro-2H-pyran-4-ol [Example 75] | 250 to 4000 nM
8 | Cn1nc(C(F)(F)F)cc1S(=O)(=O)N1CC2(CN(CC3CCOC(C)(C)C3)C2)C1 (single isomer, unassigned) [Example 200] | 100 to 250 nM
9 | CCc1nc(C(F)(F)F)ccc1S(=O)(=O)N1CC2(CN(C3CCOCC3)C2)C1 [Example 204, 2-((2-ethyl-6-(trifluoromethyl)pyridin-3-yl)sulfonyl)-6-(tetrahydro-2H-pyran-4-yl)-2,6-diazaspiro[3.3]heptane] | < 100 nM
10 | O=S(=O)(c1ccc(C2CC2)nc1C(F)(F)F)N1CC2(CN(CC3CCOCC3)C2)C1 [Example 108, 2-((6-cyclopropyl-2-(trifluoromethyl)pyridin-3-yl)sulfonyl)-6-((tetrahydro-2H-pyran-4-yl)methyl)-2,6-diazaspiro[3.3]heptane] | < 100 nM
11 | Cc1nc(C(F)(F)F)ccc1S(=O)(=O)N1CC2(CN(CC3CCCOC3)C2)C1 (stereo not shown) [Example 136] | 100 to 250 nM
12 | Cc1nc(C(F)(F)F)ccc1S(=O)(=O)N1CC2(CN(CCC3CC3)C2)C1 [Example 184] | < 100 nM
13 | Cc1nc(C(F)(F)F)ccc1S(=O)(=O)N1CCC2(CC1)CN(C1CCOCC1)C2 [Example 33, 7-((2-Methyl-6-(trifluoromethyl)pyridin-3-yl)sulfonyl)-2-(tetrahydro-2H-pyran-4-yl)-2,7-diazaspiro[3.5]nonane] | < 100 nM
14 | Cc1nc(C(F)(F)F)ccc1S(=O)(=O)N1CC2(CCN(C3CCOCC3)C2)C1 [Example 56] | < 100 nM
15 | Cc1cc(S(=O)(=O)N2CCC3(CCN(C4CCOCC4)C3)CC2)n(C)n1 [Example 37] | 100 to 250 nM
16 | Cc1ccc(S(=O)(=O)N2CC3(CN(C4CCOCC4)C3)C2)c(C(F)(F)F)n1 [Example 105, 2-((6-methyl-2-(trifluoromethyl)pyridin-3-yl)sulfonyl)-6-(tetrahydro-2H-pyran-4-yl)-2,6-diazaspiro[3.3]heptane] | 100 to 250 nM
17 | COCCC1(CN2CC3(C2)CN(S(=O)(=O)c2ccc(C(F)(F)F)nc2C)C3)CCC1 [Example 181] | 100 to 250 nM
18 | COC(CN1CC2(C1)CN(S(=O)(=O)c1ccc(C(F)(F)F)nc1C)C2)C1CC1 (stereo not shown) [Example 178] | 250 to 4000 nM
19 | Cc1nc(C(F)(F)F)ccc1S(=O)(=O)N1CC2(CN(CC3CC4(COC4)C3)C2)C1 [Example 113] | 100 to 250 nM
20 | CCc1nc(C(F)F)ccc1S(=O)(=O)N1CC2(CN(C3CC4(COC4)C3)C2)C1 [Example 206, 2-((6-(difluoromethyl)-2-ethylpyridin-3-yl)sulfonyl)-6-(2-oxaspiro[3.3]heptan-6-yl)-2,6-diazaspiro[3.3]heptane] | 100 to 250 nM
21 | Cc1cc(C(F)(F)F)ncc1S(=O)(=O)N1CC2(CN(C3CCOCC3)C2)C1 [Example 48] | 100 to 250 nM
22 | O=S(=O)(c1ccc(OC(F)F)cc1)N1CCOC2(CCN(C3CC4(COC4)C3)C2)C1 (racemic) [Example 25, 9-((4-(Difluoromethoxy)phenyl)sulfonyl)-2-(2-oxaspiro[3.3]heptan-6-yl)-6-oxa-2,9-diazaspiro[4.5]decane] | < 100 nM
23 | COc1ccc(S(=O)(=O)N2CCC3(CCN(C4CCOCC4)C3)CC2)c(C)n1 [Example 43] | < 100 nM

Row | Compound | IC50
24 | CC(C1CCOCC1)N1CC2(C1)CN(S(=O)(=O)c1cc(C(F)(F)F)nn1C)C2 (racemic) [Example 212, rac-2-((1-methyl-3-(trifluoromethyl)-1H-pyrazol-5-yl)sulfonyl)-6-(1-(tetrahydro-2H-pyran-4-yl)ethyl)-2,6-diazaspiro[3.3]heptane] | < 100 nM
25 | COC(C)(C)CN1CCC2(CC1)CN(S(=O)(=O)c1ccc(OC(F)F)cc1)CCO2 [Example 11, 4-((4-(Difluoromethoxy)phenyl)sulfonyl)-9-(2-methoxy-2-methylpropyl)-1-oxa-4,9-diazaspiro[5.5]undecane] | 100 to 250 nM
26 | Cc1nc(C(F)F)ccc1S(=O)(=O)N1CC2(CN(C3CC4(COC4)C3)C2)C1 [Example 91, 2-((6-(difluoromethyl)-2-methylpyridin-3-yl)sulfonyl)-6-(2-oxaspiro[3.3]heptan-6-yl)-2,6-diazaspiro[3.3]heptane] | 250 to 4000 nM
27 | Cn1nc(C(F)(F)F)cc1S(=O)(=O)N1CCC2(CCN(C3CCOCC3)C2)CC1 [Example 40] | < 100 nM
28 | Cc1nc(C2(C(F)(F)F)CC2)ccc1S(=O)(=O)N1CC2(CN(CC3CCOCC3)C2)C1 [Example 191, 2-((2-methyl-6-(1-(trifluoromethyl)cyclopropyl)pyridin-3-yl)sulfonyl)-6-((tetrahydro-2H-pyran-4-yl)methyl)-2,6-diazaspiro[3.3]heptane] | < 100 nM
29 | C=Cc1nc(C(F)(F)F)ccc1S(=O)(=O)N1CC2(CN(C3CCOCC3)C2)C1 [Example 203, 2-(tetrahydro-2H-pyran-4-yl)-6-((6-(trifluoromethyl)-2-vinylpyridin-3-yl)sulfonyl)-2,6-diazaspiro[3.3]heptane] | < 100 nM
30 | Cc1nc(C(F)(F)F)ccc1S(=O)(=O)N1CC2(CN(C3CCC(F)(F)CC3)C2)C1 [Example 150] | < 100 nM
31 | O=S(=O)(c1ccc(F)cc1F)N1CCOC2(CCN(C3CCOCC3)C2)C1 (stereo not shown) [Example 12, 9-((2,4-Difluorophenyl)sulfonyl)-2-(tetrahydro-2H-pyran-4-yl)-6-oxa-2,9-diazaspiro[4.5]decane] | 250 to 4000 nM
32 | Cc1nc(C(C)(F)F)ccc1S(=O)(=O)N1CC2(CN(C3CCCOC3)C2)C1 (stereo not shown) [Example 80] | 250 to 4000 nM
33 | Cc1nc(C(C)(F)F)ccc1S(=O)(=O)N1CC2(CN(CC3CC4(COC4)C3)C2)C1 [Example 114] | < 100 nM
34 | Cc1nc(C(F)(F)F)ccc1S(=O)(=O)N1CC2(CN(C3CCOCC3(C)C)C2)C1 (stereo not shown) [Example 142] | < 100 nM
35 | COC(C)CCCN1CC2(C1)CN(S(=O)(=O)c1ccc(C(F)(F)F)nc1C)C2 (stereo not shown) [Example 180] | 100 to 250 nM
36 | O=S(=O)(c1ccc(OC(F)F)cc1)N1CCC2(CC1)CN(C1CCOCC1)C2 [Example 32, 7-((4-(Difluoromethoxy)phenyl)sulfonyl)-2-(tetrahydro-2H-pyran-4-yl)-2,7-diazaspiro[3.5]nonane] | 250 to 4000 nM
37 | O=S(=O)(c1ccc(OC(F)F)cc1)N1CCOC2(CCN(C3CCOCC3)CC2)C1 [Example 5, 4-((4-(Difluoromethoxy)phenyl)sulfonyl)-9-(tetrahydro-2H-pyran-4-yl)-1-oxa-4,9-diazaspiro[5.5]undecane] | 100 to 250 nM
38 | Cn1nc(C(C)(F)F)cc1S(=O)(=O)N1CC2(CN(C3CCOCC3)C2)C1 [Example 166, 2-((3-(1,1-difluoroethyl)-1-methyl-1H-pyrazol-5-yl)sulfonyl)-6-(tetrahydro-2H-pyran-4-yl)-2,6-diazaspiro[3.3]heptane] | 100 to 250 nM
39 | Cc1nc(C(F)(F)F)ccc1S(=O)(=O)N1CC2(CN(CC3COC3)C2)C1 [Example 154] | 100 to 250 nM
40 | Cc1ccc(S(=O)(=O)N2CC3(CN(C4CCOCC4)C3)C2)c(C)c1 [Example 44, 2-((2,4-Dimethylphenyl)sulfonyl)-6-(tetrahydro-2H-pyran-4-yl)-2,6-diazaspiro[3.3]heptane] | < 100 nM
41 | O=S(=O)(c1ccc(C(F)(F)F)nc1C1CC1)N1CC2(CN(CC3CCOCC3)C2)C1 [Example 190, 2-((2-cyclopropyl-6-(trifluoromethyl)pyridin-3-yl)sulfonyl)-6-((tetrahydro-2H-pyran-4-yl)methyl)-2,6-diazaspiro[3.3]heptane] | < 100 nM
42 | COC(C)(C)CN1CC2(C[C@H]3CC[C@@H](C2)N3S(=O)(=O)c2ccc(OC(F)F)cc2)C1 [Example 63, (1′R,5′S)-8′-((4-(Difluoromethoxy)phenyl)sulfonyl)-1-(2-methoxy-2-methylpropyl)-8′-azaspiro[azetidine-3,3′-bicyclo[3.2.1]octane]] | 100 to 250 nM
43 | Cc1cc(C(F)(F)F)ncc1S(=O)(=O)N1CC2(CCN(C3CCOCC3)C2)C1 [Example 57] | 100 to 250 nM
44 | O=S(=O)(c1ccc(C(F)(F)F)nc1C1CC1)N1CC2(CN(C3CCOCC3)C2)C1 [Example 193, 2-((2-cyclopropyl-6-(trifluoromethyl)pyridin-3-yl)sulfonyl)-6-(tetrahydro-2H-pyran-4-yl)-2,6-diazaspiro[3.3]heptane] | < 100 nM
45 | CC1(O)CCC(N2CC3(C2)CN(S(=O)(=O)c2ccc(C(F)(F)F)nc2C2CC2)C3)CC1 (stereo not shown) [Example 195, 4-(6-((2-cyclopropyl-6-(trifluoromethyl)pyridin-3-yl)sulfonyl)-2,6-diazaspiro[3.3]heptan-2-yl)-1-methylcyclohexan-1-ol] | < 100 nM
46 | Cc1nc(C(F)(F)F)ccc1S(=O)(=O)N1CC2(CN(C3CCOC3)C2)C1 (stereo not shown) [Example 140] | 250 to 4000 nM
